Laboratory results published in paper PMC3382171 (PLoS ONE, 2012).

How the values were obtained:
Test in all cases: biochemical
Design in all cases: Invitrogen SelectScreen kinase panel, percent inhibition at 1 uM, ATP at Km
Settings in all cases: read-out: Invitrogen KSS %Inh at 1 µM
[1] = biological target: BTK (Homo sapiens, UniProt Q06187)
Method in brief: (§1)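 Commercial kinase panel screens run with ATP at the Km for each kinase. Compounds tested at 1 µM final concentration; values are % inhibition of phosphorylation relative to control.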

[2] = biological target: CAMK4 (CaMKIV) (Homo sapiens, UniProt Q16566)
Sequence of CAMK4 (CaMKIV) (Q16566 whole entry): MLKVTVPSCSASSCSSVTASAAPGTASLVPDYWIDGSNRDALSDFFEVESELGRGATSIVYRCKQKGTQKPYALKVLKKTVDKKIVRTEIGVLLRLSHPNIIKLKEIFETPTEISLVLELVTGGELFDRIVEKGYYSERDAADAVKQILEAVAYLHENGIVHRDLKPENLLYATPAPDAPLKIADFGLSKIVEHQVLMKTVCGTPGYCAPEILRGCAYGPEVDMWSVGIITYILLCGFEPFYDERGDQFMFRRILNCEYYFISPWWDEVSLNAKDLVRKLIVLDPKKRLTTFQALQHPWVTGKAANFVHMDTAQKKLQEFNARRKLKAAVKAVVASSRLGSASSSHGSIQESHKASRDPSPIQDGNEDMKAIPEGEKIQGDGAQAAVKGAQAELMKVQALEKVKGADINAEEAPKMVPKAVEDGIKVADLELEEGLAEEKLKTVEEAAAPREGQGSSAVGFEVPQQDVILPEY
Method in brief: as §1

[3] = biological target: CSNK1G1 (CK1 gamma 1) (Homo sapiens, UniProt Q9HCP0)
Sequence of CSNK1G1 (CK1 gamma 1) (Q9HCP0 whole entry): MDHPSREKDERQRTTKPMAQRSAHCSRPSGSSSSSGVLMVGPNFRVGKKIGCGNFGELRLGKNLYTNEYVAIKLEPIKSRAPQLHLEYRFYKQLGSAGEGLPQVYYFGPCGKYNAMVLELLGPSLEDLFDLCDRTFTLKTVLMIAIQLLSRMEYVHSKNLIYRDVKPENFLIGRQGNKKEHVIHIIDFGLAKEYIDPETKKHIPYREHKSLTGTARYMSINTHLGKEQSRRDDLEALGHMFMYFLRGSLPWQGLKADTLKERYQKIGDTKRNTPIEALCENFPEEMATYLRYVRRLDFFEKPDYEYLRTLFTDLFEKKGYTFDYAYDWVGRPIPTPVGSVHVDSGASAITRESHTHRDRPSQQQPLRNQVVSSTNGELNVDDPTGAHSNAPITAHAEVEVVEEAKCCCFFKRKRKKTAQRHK
Method in brief: as §1

[4] = biological target: CSNK2A1 (CK2 alpha 1) (Homo sapiens, UniProt P68400)
Method in brief: as §1

[5] = biological target: EGFR (ErbB1) L858R (Homo sapiens, UniProt P00533, L858R)
Sequence of EGFR (ErbB1) L858R (P00533 whole entry L858R): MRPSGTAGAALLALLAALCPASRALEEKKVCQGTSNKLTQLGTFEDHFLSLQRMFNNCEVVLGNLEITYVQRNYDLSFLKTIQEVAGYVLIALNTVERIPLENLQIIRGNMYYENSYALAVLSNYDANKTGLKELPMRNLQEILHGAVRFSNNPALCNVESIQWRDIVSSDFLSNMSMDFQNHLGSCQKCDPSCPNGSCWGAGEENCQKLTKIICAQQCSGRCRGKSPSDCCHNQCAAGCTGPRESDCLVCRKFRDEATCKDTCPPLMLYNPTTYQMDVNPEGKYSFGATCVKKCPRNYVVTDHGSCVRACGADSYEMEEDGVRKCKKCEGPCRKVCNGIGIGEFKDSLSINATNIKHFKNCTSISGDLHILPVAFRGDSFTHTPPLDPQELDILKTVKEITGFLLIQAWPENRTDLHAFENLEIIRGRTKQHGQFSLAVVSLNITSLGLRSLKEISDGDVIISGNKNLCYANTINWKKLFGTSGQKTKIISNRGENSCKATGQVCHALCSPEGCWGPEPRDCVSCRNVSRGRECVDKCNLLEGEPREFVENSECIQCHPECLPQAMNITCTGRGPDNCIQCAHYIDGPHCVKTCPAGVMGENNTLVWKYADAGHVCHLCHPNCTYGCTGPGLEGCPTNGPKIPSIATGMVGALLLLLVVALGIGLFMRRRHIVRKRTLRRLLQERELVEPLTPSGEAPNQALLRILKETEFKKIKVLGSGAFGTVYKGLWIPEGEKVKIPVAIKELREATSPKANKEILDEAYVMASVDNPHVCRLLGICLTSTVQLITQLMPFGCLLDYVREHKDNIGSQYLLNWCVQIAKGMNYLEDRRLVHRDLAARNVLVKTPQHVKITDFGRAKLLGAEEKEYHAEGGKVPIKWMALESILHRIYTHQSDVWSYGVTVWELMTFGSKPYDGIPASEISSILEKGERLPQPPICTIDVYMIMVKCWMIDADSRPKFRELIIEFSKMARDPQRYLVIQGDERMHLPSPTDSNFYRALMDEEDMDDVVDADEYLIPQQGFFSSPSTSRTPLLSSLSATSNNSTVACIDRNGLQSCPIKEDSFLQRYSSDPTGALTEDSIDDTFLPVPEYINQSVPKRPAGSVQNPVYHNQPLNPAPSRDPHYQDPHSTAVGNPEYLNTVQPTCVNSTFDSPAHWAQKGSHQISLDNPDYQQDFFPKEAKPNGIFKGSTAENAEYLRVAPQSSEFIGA
Method in brief: as §1

[6] = biological target: ERBB4 (HER4) (Homo sapiens, UniProt Q15303)
Sequence of ERBB4 (HER4) (Q15303 whole entry): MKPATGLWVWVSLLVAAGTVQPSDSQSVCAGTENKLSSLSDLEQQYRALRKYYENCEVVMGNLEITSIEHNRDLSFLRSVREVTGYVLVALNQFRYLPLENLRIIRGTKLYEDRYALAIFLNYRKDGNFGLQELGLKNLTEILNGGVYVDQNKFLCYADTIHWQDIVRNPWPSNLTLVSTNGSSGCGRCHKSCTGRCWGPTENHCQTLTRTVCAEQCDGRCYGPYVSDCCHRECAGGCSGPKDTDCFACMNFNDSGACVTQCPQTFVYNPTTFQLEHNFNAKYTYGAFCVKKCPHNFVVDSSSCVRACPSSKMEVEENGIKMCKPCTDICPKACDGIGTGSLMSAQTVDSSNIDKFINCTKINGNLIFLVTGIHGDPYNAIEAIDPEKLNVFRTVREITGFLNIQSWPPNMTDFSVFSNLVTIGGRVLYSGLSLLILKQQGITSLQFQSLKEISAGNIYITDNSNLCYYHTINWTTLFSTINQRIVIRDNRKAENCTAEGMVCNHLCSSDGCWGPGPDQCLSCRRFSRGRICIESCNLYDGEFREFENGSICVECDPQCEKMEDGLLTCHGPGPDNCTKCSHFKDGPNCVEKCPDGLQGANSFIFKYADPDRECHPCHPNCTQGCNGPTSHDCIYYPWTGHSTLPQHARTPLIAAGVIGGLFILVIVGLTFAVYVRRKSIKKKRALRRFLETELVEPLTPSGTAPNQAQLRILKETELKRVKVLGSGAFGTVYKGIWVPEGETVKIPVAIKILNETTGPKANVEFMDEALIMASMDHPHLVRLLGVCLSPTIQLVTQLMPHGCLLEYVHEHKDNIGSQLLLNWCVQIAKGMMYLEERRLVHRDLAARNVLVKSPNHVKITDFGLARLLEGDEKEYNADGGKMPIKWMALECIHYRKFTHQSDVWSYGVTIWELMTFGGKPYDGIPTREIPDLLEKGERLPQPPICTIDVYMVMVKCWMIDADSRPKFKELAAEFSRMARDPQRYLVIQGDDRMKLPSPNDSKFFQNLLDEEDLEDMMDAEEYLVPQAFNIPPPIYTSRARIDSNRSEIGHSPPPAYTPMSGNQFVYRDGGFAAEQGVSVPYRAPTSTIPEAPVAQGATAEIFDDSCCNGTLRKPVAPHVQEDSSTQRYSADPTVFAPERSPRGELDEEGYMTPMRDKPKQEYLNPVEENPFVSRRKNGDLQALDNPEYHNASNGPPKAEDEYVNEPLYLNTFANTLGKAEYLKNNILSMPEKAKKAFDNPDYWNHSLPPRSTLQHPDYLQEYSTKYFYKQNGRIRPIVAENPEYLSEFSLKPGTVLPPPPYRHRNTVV
Method in brief: as §1

[7] = biological target: FER (Homo sapiens, UniProt P16591)
Method in brief: as §1

[8] = biological target: MAP2K1 (MEK1) (Homo sapiens, UniProt Q02750)
Method in brief: as §1

[9] = biological target: MAPK1/ERK2 (Homo sapiens, UniProt P28482)
Sequence of MAPK1/ERK2 (P28482 whole entry): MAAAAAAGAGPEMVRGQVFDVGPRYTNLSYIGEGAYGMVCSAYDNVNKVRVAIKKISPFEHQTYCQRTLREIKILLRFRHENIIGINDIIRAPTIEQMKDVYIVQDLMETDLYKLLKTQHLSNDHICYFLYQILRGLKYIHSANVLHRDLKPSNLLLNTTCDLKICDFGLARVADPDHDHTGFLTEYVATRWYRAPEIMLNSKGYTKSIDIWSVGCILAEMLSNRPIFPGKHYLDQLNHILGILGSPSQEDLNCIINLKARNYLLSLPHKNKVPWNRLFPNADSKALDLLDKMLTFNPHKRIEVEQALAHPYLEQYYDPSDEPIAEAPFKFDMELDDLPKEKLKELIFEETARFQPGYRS
Method in brief: as §1

[10] = biological target: MAPK10 (JNK3) (Homo sapiens, UniProt P53779)
Method in brief: as §1

[11] = biological target: MAPK12 (p38 gamma) (Homo sapiens, UniProt P53778)
Method in brief: as §1

[12] = biological target: MAPK8 (JNK1) (Homo sapiens, UniProt P45983)
Method in brief: as §1

[13] = biological target: MAPK9 (JNK2) (Homo sapiens, UniProt P45984)
Method in brief: as §1

[14] = biological target: PAK2 (PAK65) (Homo sapiens, UniProt Q13177)
Sequence of PAK2 (PAK65) (Q13177 whole entry): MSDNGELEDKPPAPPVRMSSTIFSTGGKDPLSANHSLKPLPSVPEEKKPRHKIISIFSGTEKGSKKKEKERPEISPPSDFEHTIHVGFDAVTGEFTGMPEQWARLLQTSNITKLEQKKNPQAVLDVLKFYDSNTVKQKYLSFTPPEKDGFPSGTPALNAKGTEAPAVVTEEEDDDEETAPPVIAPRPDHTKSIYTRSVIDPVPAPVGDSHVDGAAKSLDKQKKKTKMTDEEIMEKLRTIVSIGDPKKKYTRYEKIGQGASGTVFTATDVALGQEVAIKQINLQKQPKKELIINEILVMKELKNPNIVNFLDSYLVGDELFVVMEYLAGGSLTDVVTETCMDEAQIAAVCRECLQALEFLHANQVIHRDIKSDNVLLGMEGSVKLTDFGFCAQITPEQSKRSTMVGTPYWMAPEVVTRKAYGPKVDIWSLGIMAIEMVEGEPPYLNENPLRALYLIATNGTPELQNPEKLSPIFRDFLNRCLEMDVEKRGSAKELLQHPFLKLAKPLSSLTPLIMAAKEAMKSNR
Method in brief: as §1

[15] = biological target: PIK3CA/PIK3R1 (p110 alpha/p85 alpha) (Homo sapiens, UniProt P42336)
Method in brief: as §1

[16] = biological target: RAF1 (cRAF) Y340D Y341D (Homo sapiens, UniProt P04049, Y340D/Y341D)
Sequence of RAF1 (cRAF) Y340D Y341D (P04049 whole entry Y340D/Y341D): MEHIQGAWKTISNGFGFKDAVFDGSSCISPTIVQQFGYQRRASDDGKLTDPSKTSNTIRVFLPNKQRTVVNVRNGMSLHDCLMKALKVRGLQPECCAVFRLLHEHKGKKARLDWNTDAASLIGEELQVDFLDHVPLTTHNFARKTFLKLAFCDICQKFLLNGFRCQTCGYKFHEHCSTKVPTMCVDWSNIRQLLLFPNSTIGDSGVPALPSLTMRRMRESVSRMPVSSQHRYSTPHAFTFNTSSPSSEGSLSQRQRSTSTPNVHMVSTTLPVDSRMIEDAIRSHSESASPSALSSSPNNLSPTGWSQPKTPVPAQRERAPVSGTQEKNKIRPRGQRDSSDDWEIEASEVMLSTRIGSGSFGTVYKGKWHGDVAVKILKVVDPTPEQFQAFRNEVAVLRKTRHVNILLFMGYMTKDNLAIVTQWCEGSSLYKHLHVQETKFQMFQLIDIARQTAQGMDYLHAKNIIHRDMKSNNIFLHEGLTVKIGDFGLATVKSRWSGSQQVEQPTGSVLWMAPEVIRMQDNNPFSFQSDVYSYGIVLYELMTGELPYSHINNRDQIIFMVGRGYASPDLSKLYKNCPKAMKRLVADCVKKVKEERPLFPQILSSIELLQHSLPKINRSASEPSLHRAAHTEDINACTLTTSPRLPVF
Method in brief: as §1

[17] = biological target: ROCK1 (Homo sapiens, UniProt Q13464)
Method in brief: as §1

[18] = biological target: TYRO3 (RSE) (Homo sapiens, UniProt Q06418)
Method in brief: as §1

- inhibition at 1 µM [1]: -7%
- inhibition at 1 µM [2]: -5%
- inhibition at 1 µM [3]: 0%
- inhibition at 1 µM [4]: -1%
- inhibition at 1 µM [5]: 6%
- inhibition at 1 µM [6]: 24%
- inhibition at 1 µM [7]: -2%
- inhibition at 1 µM [8]: 24%
- inhibition at 1 µM [9]: 14%
- inhibition at 1 µM [10]: 81%
- inhibition at 1 µM [11]: 2%
- inhibition at 1 µM [12]: 31%
- inhibition at 1 µM [13]: 101%
- inhibition at 1 µM [14]: 3%
- inhibition at 1 µM [15]: 35%
- inhibition at 1 µM [16]: 95%
- inhibition at 1 µM [17]: 4%
- inhibition at 1 µM [18]: 10%
Structure (SMILES): N#CCCNc1nccc(-c2cn(CC(F)F)nc2-c2cnc3[nH]ccc3c2)n1 [RAFi, PF-04880594]
